According to PubChem BioAssay AID1259408 (Genetic Toxicology Data Bank (GENE-TOX), 2018):
Active and inactive are the calls of the source. The rule behind the calls is not given here.

Tested on: GENE-TOX genotoxicity assays, various organisms and cells
Assay: GENE-TOX mutagenicity studies
Conditions: for call: Assay Type: In vivo carcinogenicity studies
[1] = Species/Cell Type: Allium cepa, Assay Type: Chromosome aberrations, Assay Code: ALC+, Evaluation Type: Evaluation A (Pre-1980)
[2] = Species/Cell Type: Salmonella typhimurium (one or more of the five standard strains: TA98, TA100, TA1535, TA1537, and TA1538), Assay Type: Histidine reverse gene mutation, Ames assay, Assay Code: SAL+, Evaluation Type: Evaluation A (Pre-1980)
[3] = Species/Cell Type: Salmonella typhimurium (one or more of the five standard strains: TA98, TA100, TA1535, TA1537, and TA1538), Assay Type: Histidine reverse gene mutation, Ames assay, Assay Code: SAL-, Evaluation Type: Evaluation A (Pre-1980)
[4] = Species/Cell Type: Salmonella typhimurium (one or more of the five standard strains: TA98, TA100, TA1535, TA1537, and TA1538), Assay Type: Histidine reverse gene mutation, Ames assay, Assay Code: SAL+*, Activation: With metabolic activation, Evaluation Type: Evaluation A (Pre-1980)
[5] = Species/Cell Type: Salmonella typhimurium (one or more of the five standard strains: TA98, TA100, TA1535, TA1537, and TA1538), Assay Type: Histidine reverse gene mutation, Ames assay, Assay Code: SALT, Evaluation Type: Evaluation A (Pre-1980)
[6] = Species/Cell Type: Nonhuman, Assay Type: Sister-chromatid exchange (SCE) in vitro, Assay Code: SC2+, Evaluation Type: Evaluation B (Post-1980)
[7] = Species/Cell Type: Nonhuman, Assay Code: CCG+, Evaluation Type: Evaluation A (Pre-1980)
[8] = Species/Cell Type: Mouse, Sex: Male, Assay Type: Sperm morphology, Assay Code: SPI-, Evaluation Type: Evaluation A (Pre-1980)
[9] = Species/Cell Type: Drosophila melanogaster, Assay Type: Sex-linked recessive lethal gene mutation, Assay Code: SRL-, Evaluation Type: Evaluation A (Pre-1980)
[10] = Species/Cell Type: Salmonella typhimurium, Assay Type: Forward and reverse gene mutation, host-mediated assay, Assay Code: HMA+, Evaluation Type: Evaluation A (Pre-1980)
[11] = Species/Cell Type: Drosophila melanogaster, Assay Type: Sex-linked recessive lethal gene mutation, Assay Code: SRL+, Evaluation Type: Evaluation A (Pre-1980)
[12] = Species/Cell Type: Saccharomyces cerevisiae, Assay Type: Mitotic recombination or gene conversion, Assay Code: YEC-, Evaluation Type: Evaluation A (Pre-1980)

Compound: CS(=O)(=O)OC[C@@H](O)[C@H](O)COS(C)(=O)=O
- mutagenic call [1]: active; positive
- mutagenic call (Species/Cell Type: Arabidopsis species, Assay Type: Gene mutation, Assay Code: ARM+, Evaluation Type: Evaluation A (Pre-1980)): active; positive

Compound: CC(C)(c1ccc(O)cc1)c1ccc(O)cc1 (tested in a mixture with another compound)
- mutagenic call [2]: active; positive

Compound: C(=C\c1ccccc1)/c1ccccc1
- mutagenic call [3]: inactive; negative

Compound: N=c1ccn(O)c2ccccc12
- mutagenic call (Species/Cell Type: Escherichia coli polA (W3119 vs P3478), Assay Type: Rec-assay, DNA effects (bacterial DNA repair), Assay Code: RE1-, Evaluation Type: Evaluation A (Pre-1980)): inactive; negative
- mutagenic call (Species/Cell Type: Nonhuman, Assay Type: Chromosome aberrations in vitro, Assay Code: CY&+D, Dose Response: With dose response, Evaluation Type: Evaluation A (Pre-1980)): active; positive
- call (Species/Cell Type: Nonhuman, Assay Code: CCGT, Evaluation Type: Evaluation A (Pre-1980)): no conclusion
- mutagenic call (Species/Cell Type: Nonhuman, Assay Type: Sister-chromatid exchange (SCE) in vitro, Assay Code: SC2+D, Dose Response: With dose response, Evaluation Type: Evaluation A (Pre-1980)): active; positive

Compound: Cc1ccc2ncccc2c1
- mutagenic call [4]: active; positive

Compound: CCCCNc1ccc(C(=O)OCCN(C)C)cc1
- mutagenic call [5]: no conclusion

Compound: CC(=O)[O-].CC(=O)[O-].CC(=O)[O-].[Cr+3]
- mutagenic call (Species/Cell Type: Chinese hamster ovary (CHO) cells, Assay Type: Forward gene mutation at the HPRT locus, Assay Code: CHOT, Evaluation Type: Evaluation B (Post-1980)): no conclusion
- mutagenic call (Species/Cell Type: Nonhuman, Assay Type: Sister-chromatid exchange (SCE) in vitro, Assay Code: SC2T, Evaluation Type: Evaluation B (Post-1980)): no conclusion

Compound: O=[N+]([O-])[O-].O=[N+]([O-])[O-].[Mn+2]
- mutagenic call (Species/Cell Type: Bacillus subtilis (H17 vs M45), Assay Type: Rec-assay, spot test, DNA effects (bacterial DNA repair), Assay Code: REW+, Evaluation Type: Evaluation A (Pre-1980)): active; positive

Compound: C1CC[C@H]2O[C@H]2C1
- mutagenic call [6]: active; positive
- mutagenic call (Species/Cell Type: Nonhuman, Assay Type: Sister-chromatid exchange (SCE) in vitro, Assay Code: SC2T, Evaluation Type: Evaluation A (Pre-1980)): no conclusion

Compound: CC(COc1ccc(C(C)(C)C)cc1)OS(=O)OCCCl (stereo unspecified)
- call [7]: active; positive

Compound: CC1CC2OC(=O)C(C)C2CC2(C)C(O)OC(O)CC12 (stereo unspecified)
- mutagenic call [2]: active; positive

Compound: CSc1nc2c(c(=O)n(C)c(=O)n2C)n1C
- mutagenic call (Species/Cell Type: Allium cepa, Assay Type: Chromosome aberrations, Assay Code: ALC+D, Dose Response: With dose response, Evaluation Type: Evaluation A (Pre-1980)): active; positive

Compound: Nc1ccc(F)cc1
- mutagenic call [8]: inactive; negative

Compound: CCOC(=O)CC(SP(=S)(OC)OC)C(=O)OCC (stereo unspecified)
- mutagenic call (Species/Cell Type: Bacillus subtilis (H17 vs M45), Assay Type: Rec-assay, spot test, DNA effects (bacterial DNA repair), Assay Code: REWT, Evaluation Type: Evaluation A (Pre-1980)): no conclusion
- mutagenic call [9]: inactive; negative
- mutagenic call (Species/Cell Type: Escherichia coli WP2 UVRA, Assay Type: Tryptophan reverse gene mutation, Assay Code: WPU-*, Activation: With metabolic activation, Evaluation Type: Evaluation A (Pre-1980)): inactive; negative
- mutagenic call (Species/Cell Type: Escherichia coli polA (W3119 vs P3478), Assay Type: Rec-assay, DNA effects (bacterial DNA repair), Assay Code: RE1T, Evaluation Type: Evaluation A (Pre-1980)): no conclusion
- mutagenic call (Species/Cell Type: Hordeum vulgare (barley), Assay Type: Chromosome aberrations, Assay Code: HOC+D, Dose Response: With dose response, Evaluation Type: Evaluation A (Pre-1980)): active; positive
- mutagenic call (Species/Cell Type: Human diploid fibroblasts, Assay Type: Unscheduled DNA synthesis (UDS) in vitro, DNA effects, Assay Code: UDH-, Evaluation Type: Evaluation A (Pre-1980)): inactive; negative
- mutagenic call (Species/Cell Type: Human, Assay Type: Sister-chromatid exchange (SCE) in vitro, Assay Code: SC1+D, Dose Response: With dose response, Evaluation Type: Evaluation A (Pre-1980)): active; positive
- mutagenic call (Species/Cell Type: Human, Assay Type: Sister-chromatid exchange (SCE) in vitro, Assay Code: SC1+D, Dose Response: With dose response, Evaluation Type: Evaluation B (Post-1980)): active; positive
- mutagenic call (Species/Cell Type: Mammalian polychromatic erythrocytes, Assay Type: Micronucleus test, chromosome aberrations, Assay Code: MNT+, Evaluation Type: Evaluation B (Post-1980)): active; positive
- call (Species/Cell Type: Nonhuman, Assay Code: CCG-, Evaluation Type: Evaluation A (Pre-1980)): inactive; negative
- mutagenic call (Species/Cell Type: Nonhuman, Assay Type: Sister-chromatid exchange (SCE) in vitro, Assay Code: SC2+D, Dose Response: With dose response, Evaluation Type: Evaluation B (Post-1980)): active; positive
- mutagenic call (Species/Cell Type: Saccharomyces cerevisiae, Assay Type: Mitotic recombination or gene conversion, Assay Code: YEH-, Evaluation Type: Evaluation A (Pre-1980)): inactive; negative
- mutagenic call [3]: inactive; negative

Compound: CCOCc1c(O)cc2c(c1O)C(=O)c1ccccc1C2=O
- mutagenic call [2]: active; positive

Compound: CCN(CC)CCn1nc2c3c(c(CO)ccc31)Sc1cc(Cl)ccc1-2
- mutagenic call [9]: inactive; negative
- mutagenic call (Species/Cell Type: Fischer rat embryo (RLV/1706) cells, Assay Type: Cell transformation, viral enhanced, Assay Code: CTR-, Evaluation Type: Evaluation A (Pre-1980)): inactive; negative
- mutagenic call (Species/Cell Type: Mouse lymphoma (L5178Y) cells, Assay Type: Forward gene mutation at the thymidine kinase (TK) locus, chromosome aberrations, Assay Code: L51+, Evaluation Type: Evaluation A (Pre-1980)): active; positive
- mutagenic call (Species/Cell Type: Neurospora crassa, Assay Type: Forward gene mutation, Assay Code: NEF+, Evaluation Type: Evaluation A (Pre-1980)): active; positive
- mutagenic call (Species/Cell Type: Saccharomyces cerevisiae, Assay Type: Reverse gene mutation, Assay Code: YER+, Evaluation Type: Evaluation A (Pre-1980)): active; positive
- mutagenic call [2]: active; positive
- mutagenic call (Species/Cell Type: Salmonella typhimurium, Assay Type: Forward and reverse gene mutation, body fluid assay, Assay Code: BFU+, Evaluation Type: Evaluation A (Pre-1980)): active; positive
- mutagenic call [10]: active; positive

Compound: O=NN1CCOCC1
- mutagenic call (Species/Cell Type: Chinese hamster lung (V79) cells, Assay Type: Forward gene mutation at the HPRT or ouabain locus, Assay Code: V79+, Evaluation Type: Evaluation A (Pre-1980)): active; positive
- mutagenic call [11]: active; positive
- mutagenic call (Species/Cell Type: Drosophila melanogaster, Sex: Male, Assay Type: Heritable translocation test, chromosome aberrations, Assay Code: DHTT, Evaluation Type: Evaluation A (Pre-1980)): no conclusion
- mutagenic call (Species/Cell Type: Human lymphocytes or leukocytes, Assay Type: Chromosome aberrations in vivo, Assay Code: CY8+, Evaluation Type: Evaluation A (Pre-1980)): active; positive
- mutagenic call (Species/Cell Type: Mammalian polychromatic erythrocytes, Assay Type: Micronucleus test, chromosome aberrations, Assay Code: MNT+, Evaluation Type: Evaluation A (Pre-1980)): active; positive
- mutagenic call [8]: inactive; negative
- mutagenic call (Species/Cell Type: Nonhuman lymphocytes or leukocytes, Assay Type: Chromosome aberrations in vivo, Assay Code: CY%+, Evaluation Type: Evaluation A (Pre-1980)): active; positive
- call [7]: active; positive
- mutagenic call (Species/Cell Type: Nonhuman, Assay Type: Sister-chromatid exchange (SCE) in vitro, Assay Code: SC2+D*, Activation: With metabolic activation, Dose Response: With dose response, Evaluation Type: Evaluation B (Post-1980)): active; positive
- mutagenic call (Species/Cell Type: Nonhuman, Assay Type: Sister-chromatid exchange (SCE) in vivo, Assay Code: SC3+D, Dose Response: With dose response, Evaluation Type: Evaluation B (Post-1980)): active; positive
- mutagenic call (Species/Cell Type: Rat primary hepatocytes, Assay Type: Unscheduled DNA synthesis (UDS) in vitro, DNA effects, Assay Code: UDP+, Evaluation Type: Evaluation A (Pre-1980)): active; positive
- mutagenic call [5]: no conclusion
- mutagenic call [10]: active; positive

Compound: Cc1cc(N)c(N)cc1C
- mutagenic call (Species/Cell Type: Mammalian polychromatic erythrocytes, Assay Type: Micronucleus test, chromosome aberrations, Assay Code: MNTT, Evaluation Type: Evaluation B (Post-1980)): no conclusion

Compound: C#CC(C)N(C(=O)CCl)c1ccccc1 (stereo unspecified)
- mutagenic call [12]: inactive; negative

Compound: O=C([O-])[O-].[Cd+2]
- mutagenic call [6]: active; positive

Compound: O=C(CCN1CCCC1)c1ccc2c(c1)OCO2
- mutagenic call (Species/Cell Type: Salmonella typhimurium, Assay Type: Forward and reverse gene mutation, host-mediated assay, Assay Code: HMA-, Evaluation Type: Evaluation A (Pre-1980)): inactive; negative

Compound: c1ccc2c(c1)-c1ccc3ccc4cccc5cc-2c1c3c45
- call [7]: active; positive

Compound: Cc1ccc2ccc3c4ccccc4ccc3c2c1
- mutagenic call [4]: active; positive

Compound: CCCCNP(=O)(N1CC1)N1CC1
- mutagenic call [11]: active; positive
- mutagenic call (Species/Cell Type: Nonhuman, Assay Type: Chromosome aberrations in vitro, Assay Code: CY&+, Evaluation Type: Evaluation A (Pre-1980)): active; positive
- mutagenic call (Species/Cell Type: Schizosaccharomyces pombe, Assay Type: Reverse gene mutation, Assay Code: YEZ+, Evaluation Type: Evaluation A (Pre-1980)): active; positive

Compound: O=C(NCCCCCCCCNC(=O)C(Cl)Cl)C(Cl)Cl
- mutagenic call (Species/Cell Type: Human, Sex: Male, Assay Type: Sperm morphology, Assay Code: SPH+, Evaluation Type: Evaluation A (Pre-1980)): active; positive

Compound: O=S(=O)(O)c1ccc2c(N=Nc3ccccc3)c(O)ccc2c1
- mutagenic call [12]: inactive; negative

Compound: Cc1cc(O)ccc1[N+](=O)[O-]
- mutagenic call [1]: active; positive
